21 compounds from ChEMBL document CHEMBL4000254, “Sodium Channel Blockers” (ACS Med Chem Lett, 2017) can be followed below.

In this assay the target is Sodium channel protein type 9 subunit alpha (Homo sapiens, UniProt Q15858). Put plainly: Inhibition of human Nav1.7 expressed in HEK293 cells assessed as inhibition of peak current after 50 secs by automated patch clamp assay. The class given is cell-based. On the technique in general: The patch-clamp technique gives a direct electrical read-out from membranes.
Sequence of Sodium channel protein type 9 subunit alpha (Q15858 whole entry): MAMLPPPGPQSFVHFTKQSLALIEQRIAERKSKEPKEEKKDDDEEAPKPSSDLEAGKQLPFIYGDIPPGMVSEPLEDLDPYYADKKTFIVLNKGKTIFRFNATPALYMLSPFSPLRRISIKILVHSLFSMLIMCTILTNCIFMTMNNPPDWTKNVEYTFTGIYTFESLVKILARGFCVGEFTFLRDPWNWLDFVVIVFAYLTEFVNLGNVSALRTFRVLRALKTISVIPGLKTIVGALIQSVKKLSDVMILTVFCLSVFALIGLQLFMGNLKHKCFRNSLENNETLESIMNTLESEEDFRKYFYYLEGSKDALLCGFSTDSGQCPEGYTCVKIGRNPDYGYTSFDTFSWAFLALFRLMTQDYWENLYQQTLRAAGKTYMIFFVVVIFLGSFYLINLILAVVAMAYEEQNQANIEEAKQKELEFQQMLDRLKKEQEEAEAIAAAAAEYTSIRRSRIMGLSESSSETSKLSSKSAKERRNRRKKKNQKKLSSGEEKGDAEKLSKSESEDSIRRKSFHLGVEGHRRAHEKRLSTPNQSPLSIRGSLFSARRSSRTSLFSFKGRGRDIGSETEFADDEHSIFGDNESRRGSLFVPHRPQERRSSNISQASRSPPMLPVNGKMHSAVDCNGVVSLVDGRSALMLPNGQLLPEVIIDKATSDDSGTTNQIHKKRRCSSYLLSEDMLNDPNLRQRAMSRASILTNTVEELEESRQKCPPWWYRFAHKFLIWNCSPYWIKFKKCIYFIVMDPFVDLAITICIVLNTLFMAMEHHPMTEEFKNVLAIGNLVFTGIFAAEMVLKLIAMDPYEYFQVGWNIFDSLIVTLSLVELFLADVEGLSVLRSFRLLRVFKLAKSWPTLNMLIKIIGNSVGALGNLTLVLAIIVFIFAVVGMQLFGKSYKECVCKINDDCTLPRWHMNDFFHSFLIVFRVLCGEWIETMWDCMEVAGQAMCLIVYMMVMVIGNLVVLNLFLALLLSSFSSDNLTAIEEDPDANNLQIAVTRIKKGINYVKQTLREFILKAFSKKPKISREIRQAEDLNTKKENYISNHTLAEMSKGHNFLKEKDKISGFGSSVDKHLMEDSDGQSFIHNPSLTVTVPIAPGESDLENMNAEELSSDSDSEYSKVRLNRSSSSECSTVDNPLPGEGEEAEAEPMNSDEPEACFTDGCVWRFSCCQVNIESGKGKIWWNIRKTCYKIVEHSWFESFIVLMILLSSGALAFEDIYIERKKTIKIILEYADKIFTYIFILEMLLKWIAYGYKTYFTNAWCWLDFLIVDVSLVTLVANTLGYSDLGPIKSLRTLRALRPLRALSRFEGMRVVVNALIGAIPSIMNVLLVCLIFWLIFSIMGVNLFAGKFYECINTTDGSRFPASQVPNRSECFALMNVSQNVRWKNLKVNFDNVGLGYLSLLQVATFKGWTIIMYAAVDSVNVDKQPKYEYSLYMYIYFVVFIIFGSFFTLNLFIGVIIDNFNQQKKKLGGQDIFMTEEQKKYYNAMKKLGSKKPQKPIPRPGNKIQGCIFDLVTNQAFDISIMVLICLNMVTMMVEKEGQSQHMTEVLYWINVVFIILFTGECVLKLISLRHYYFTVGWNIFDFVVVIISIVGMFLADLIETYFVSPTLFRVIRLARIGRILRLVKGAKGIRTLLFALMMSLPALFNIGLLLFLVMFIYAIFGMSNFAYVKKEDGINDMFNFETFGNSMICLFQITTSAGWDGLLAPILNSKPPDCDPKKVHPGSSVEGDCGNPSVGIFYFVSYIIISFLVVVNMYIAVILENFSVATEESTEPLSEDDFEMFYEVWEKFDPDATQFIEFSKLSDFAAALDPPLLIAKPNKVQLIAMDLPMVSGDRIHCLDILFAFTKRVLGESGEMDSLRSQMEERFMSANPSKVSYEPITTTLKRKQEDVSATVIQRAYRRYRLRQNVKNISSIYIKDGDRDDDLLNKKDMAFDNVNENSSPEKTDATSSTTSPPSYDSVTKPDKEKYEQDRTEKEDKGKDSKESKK
By IC50 is commonly meant the concentration needed to halve the response being measured. For `CS(=O)(=O)NC(=O)c1cc(Cl)c(-n2nc(Cl)c3cc(-c4cccc(Cl)c4F)ccc32)cc1F`, the IC50 was determined as 70 nM.
Next, `CS(=O)(=O)NC(=O)c1cc(Cl)c(-n2cc(F)c3cc(-c4cccc(Cl)c4)cnc32)cc1F`: 50 nM; `CS(=O)(=O)NC(=O)c1cc(Cl)c(-n2nc(F)c3cc(-c4cccc(Cl)c4)ccc32)cc1F`: 40 nM; `CS(=O)(=O)NC(=O)c1cc(Cl)c(-n2cc(F)c3cc(-c4ccc(C(F)(F)F)cc4)cnc32)cc1F`: 50 nM.
Next, `CS(=O)(=O)NC(=O)c1cc(Cl)c(-n2nc(Cl)c3cc(-c4cc(F)ccc4F)ccc32)cc1F`: 90 nM.
On to `CS(=O)(=O)NC(=O)c1cc(Cl)c(-n2ncc3cc(-c4ccc(Cl)cc4F)ccc32)cc1F`, for which the IC50 stood at 70 nM.
As to `Cc1ccccc1-c1ccc2c(c1)c(F)nn2-c1cc(F)c(C(=O)NS(C)(=O)=O)cc1Cl`, the IC50 is 60 nM.
Next, `COc1cccc(-c2ccc3c(c2)c(F)nn3-c2cc(F)c(C(=O)NS(C)(=O)=O)cc2Cl)c1`: 80 nM; `CS(=O)(=O)NC(=O)c1cc(Cl)c(-n2cc(Cl)c3cc(-c4ccc(F)cc4F)cnc32)cc1F`: 80 nM.
For the compound `Cc1cccc(-c2ccc3c(c2)c(Cl)nn3-c2cc(F)c(C(=O)NS(C)(=O)=O)cc2Cl)c1`, the half-maximal inhibitory concentration (IC50) came to 39 nM.
The result for `CS(=O)(=O)NC(=O)c1cc(Cl)c(-n2cc(Cl)c3cc(-c4ccc(C(F)(F)F)cc4)cnc32)cc1F` reads 50 nM.
Next, `CS(=O)(=O)NC(=O)c1cc(Cl)c(-n2nc(Cl)c3cc(OCc4ccc5ccccc5c4)ccc32)cc1F`: 7.6 nM.
Take `CS(=O)(=O)NC(=O)c1cc(Cl)c(-n2nc(Cl)c3cc(-c4ccc(Cl)c(F)c4)ccc32)cc1F`: the IC50 worked out at 80 nM.
Next, `CS(=O)(=O)NC(=O)c1cc(Cl)c(-n2cc(F)c3cc(-c4cccc(Cl)c4F)cnc32)cc1F`: 40 nM; `Cc1cc(F)ccc1-c1cnc2c(c1)c(Cl)cn2-c1cc(F)c(C(=O)NS(C)(=O)=O)cc1Cl`: 90 nM.
On to `CS(=O)(=O)NC(=O)c1cc(Cl)c(-n2nc(Cl)c3cc(-c4cc(F)c(F)c(F)c4)ccc32)cc1F`, for which the IC50 is 20 nM.
The result for `CS(=O)(=O)NC(=O)c1cc(Cl)c(-n2ncc3cc(-c4cccc(Cl)c4)ccc32)cc1F` reads 70 nM.
Next, `CS(=O)(=O)NC(=O)c1cc(Cl)c(-n2nc(F)c3cc(-c4cccc(F)c4)ccc32)cc1F`: 90 nM.
Next, `CS(=O)(=O)NC(=O)c1cc(Cl)c(-n2cc(Cl)c3cc(-c4ccc(F)cc4Cl)cnc32)cc1F`: 40 nM.
For `Cc1cccc(-c2ccc3c(c2)c(F)nn3-c2cc(F)c(C(=O)NS(C)(=O)=O)cc2Cl)c1`, the IC50 came to 80 nM.
The result for `CS(=O)(=O)NC(=O)c1cc(Cl)c(-n2nc(Cl)c3cc(-c4ccc(OC(F)(F)F)cc4)ccc32)cc1F` reads 80 nM.
